In the CheMixHub viscosity set:
Several values for one entry are separate records, joined by “and”; a condition that tells them apart may be missing. Identical values can stand only once.

How the values were obtained:
[1] = xn = mol fraction of the nth substance listed

CC(C)CN
Conditions | viscosity [mPa·s]
298.15 K, 101 kPa | 0.563

CC(C)Cc1ccccc1
viscosity [mPa·s]
Conditions | 293.15 K | 303.15 K | 313.15 K | 323.15 K
101 kPa | – | 0.899 | 0.771 | –
102 kPa | 1.02 | 0.883 | 0.769 | 0.68

CC(O)C(=O)[O-].CN(C)C(=N)[NH+](C)C
101 kPa
Conditions | viscosity [mPa·s]
303.15 K | 13700
308.15 K | 7300
313.15 K | 3960
318.15 K | 2260
323.15 K | 1370

CC=CC(=O)OCC
101 kPa
Conditions | viscosity [mPa·s]
293.15 K | 0.8184
298.15 K | 0.7576
303.15 K | 0.7053
313.15 K | 0.6154
323.15 K | 0.5471

CCC(C)CC
101.33 kPa
Conditions | viscosity [mPa·s]
298 K | 0.288
298.15 K | 0.2909

CCCCCCCC/C=C\CCCCCCCC(=O)O
101 kPa
Conditions | viscosity [mPa·s]
298.15 K | 35.41
323.15 K | 14.38

CCCC[N+]1(C)CCCC1.O=S(=O)([N-]S(=O)(=O)C(F)(F)F)C(F)(F)F
viscosity
Conditions | 293.15 K | 295.2 K | 298.15 K | 303.15 K | 308.15 K | 313.15 K | 318.15 K
100 kPa | 97.99 mPa·s and 90.17 mPa·s | – | 74.9 mPa·s and 70.12 mPa·s | 61.58 mPa·s and 56.19 mPa·s | 50.81 mPa·s and 45.8 mPa·s | 37.99 mPa·s | 34.58 mPa·s
101 kPa | 86.03 mPa·s and 86.05 mPa·s | – | 68.14 mPa·s and 68.16 mPa·s and 70.5 mPa·s | 54.03 mPa·s and 54.05 mPa·s | 44.37 mPa·s and 44.38 mPa·s | 42 mPa·s and 35.75 mPa·s and 35.76 mPa·s | 29.71 mPa·s and 29.72 mPa·s
101.3 kPa | – | 80 mPa·s | – | – | – | – | –

CCC[NH3+].O=[N+]([O-])[O-]
Conditions | viscosity [mPa·s]
298 K, 101 kPa | 72.61

CCOS(=O)(=O)[O-].CC[n+]1ccn(C)c1
viscosity
Conditions | 298.15 K | 303.15 K | 308.15 K | 313.15 K | 318.15 K | 323.15 K
100 kPa | 96.87 mPa·s and 95.9 mPa·s | 76.51 mPa·s and 75.7 mPa·s | 61.6 mPa·s | 61.6 mPa·s | 50.5 mPa·s | 35.03 mPa·s
101 kPa | 95.9 mPa·s and 95.5 mPa·s | 75.63 mPa·s and 75.4 mPa·s | – | 49.45 mPa·s | – | 34.24 mPa·s

CC[n+]1ccccc1.O=S(=O)([O-])C(F)(F)F
101 kPa
Conditions | viscosity [mPa·s]
293.15 K | 75.2
298.15 K | 60.58
303.15 K | 48.77
313.15 K | 33.78
323.15 K | 24.47

CN(c1ccccc1)c1ccccc1
101 kPa
Conditions | viscosity
293.15 K | 7.25 mPa·s
293.25 K | 7.22 mPa·s
303.15 K | 5.13 mPa·s
313.15 K | 3.84 mPa·s and 3.835 mPa·s

Cc1cc(C)cc(C)c1
Conditions | viscosity
293.15 K, 101 kPa | 0.692 mPa·s and 0.721 mPa·s
293.15 K, 101.33 kPa | 0.692 mPa·s
293.15 K, 102 kPa | 0.699 mPa·s
295.01 K, 101.33 kPa | 0.6861 mPa·s
298.15 K, 101 kPa | 0.6025 mPa·s and 0.6518 mPa·s
298.15 K, 101.3 kPa | 0.656 mPa·s and 0.671 mPa·s
298.15 K, 101.33 kPa | 0.6 mPa·s and 0.658 mPa·s
298.38 K, 100 kPa | 0.6595 mPa·s
298.38 K, 101.33 kPa | 0.6595 mPa·s
302.82 K, 101.33 kPa | 0.6227 mPa·s
303 K, 101 kPa | 0.6123 mPa·s and 0.6124 mPa·s
303.15 K, 101 kPa | 0.633 mPa·s and 0.612 mPa·s
303.15 K, 101.3 kPa | 0.616 mPa·s and 0.624 mPa·s
303.15 K, 101.33 kPa | 0.564 mPa·s
303.15 K, 102 kPa | 0.606 mPa·s
307.35 K, 101.33 kPa | 0.584 mPa·s
307.4 K, 101.33 kPa | 0.309 mPa·s
307.78 K, 101.33 kPa | 0.5879 mPa·s
308.15 K, 101.3 kPa | 0.581 mPa·s and 0.589 mPa·s
308.15 K, 101.33 kPa | 0.5482 mPa·s and 0.585 mPa·s
308.5 K, 101 kPa | 0.597 mPa·s
312.69 K, 100 kPa | 0.5561 mPa·s
312.69 K, 101.33 kPa | 0.5561 mPa·s
313 K, 101 kPa | 0.5482 mPa·s and 0.5481 mPa·s
313.15 K, 102 kPa | 0.534 mPa·s
317.53 K, 101.33 kPa | 0.5269 mPa·s
318.15 K, 101 kPa | 0.3678 mPa·s and 0.52 mPa·s
322.26 K, 101.33 kPa | 0.5017 mPa·s
323 K, 101 kPa | 0.491 mPa·s and 0.4898 mPa·s
323.15 K, 101 kPa | 0.495 mPa·s
323.15 K, 102 kPa | 0.476 mPa·s

O=C1CCCN1
101.33 kPa
Conditions | viscosity [mPa·s]
304.15 K | 10.5
308.15 K | 9.102
313.15 K | 7.687
318.15 K | 6.593
323.15 K | 5.666

OCCC1CCCCN1 (stereo unspecified)
Conditions | viscosity [mPa·s]
313.15 K, 101.3 kPa | 77.17

OCCCCO
viscosity
Conditions | 293.15 K | 298.15 K | 303.15 K | 308.15 K | 313.15 K | 318.15 K | 323.15 K
101 kPa | 96.5 mPa·s and 96.8 mPa·s | 72.8 mPa·s and 72.1 mPa·s and 75.6 mPa·s | 54.3 mPa·s and 57.2 mPa·s and 50.53 mPa·s | – | 32.8 mPa·s and 35.4 mPa·s and 37.03 mPa·s | – | –
101.3 kPa | 92.14 mPa·s | 71.91 mPa·s | – | 45.04 mPa·s | 36.26 mPa·s | 29.38 mPa·s | 24.18 mPa·s
101.33 kPa | 91.27 mPa·s | 72.83 mPa·s | 56.05 mPa·s | 45.06 mPa·s | 36.02 mPa·s | 30.61 mPa·s | –

[Cl-].[Cl-].[Cl-].[Cl-].[Sn+4]
101 kPa
Conditions | viscosity
293.15 K | 0.951 mPa·s and 0.927 mPa·s
298.15 K | 0.919 mPa·s and 0.8145 mPa·s
313.15 K | 0.715 mPa·s and 0.758 mPa·s
323.15 K | 0.668 mPa·s and 0.683 mPa·s and 0.683 mPa·s

Cc1cc(C)cc(C)c1 + O=C1CCCCC1
viscosity [mPa·s], [1], 101.33 kPa
Conditions | x2 = 0.0996 | x2 = 0.1988 | x2 = 0.3039 | x2 = 0.4042 | x2 = 0.5038 | x2 = 0.602 | x2 = 0.7001 | x2 = 0.8014 | x2 = 0.8988
298.15 K | 0.702 | 0.75 | 0.81 | 0.882 | 0.965 | 1.067 | 1.193 | 1.375 | 1.607
303.15 K | 0.657 | 0.702 | 0.755 | 0.819 | 0.896 | 0.987 | 1.115 | 1.258 | 1.484
308.15 K | 0.619 | 0.659 | 0.706 | 0.765 | 0.835 | 0.915 | 1.027 | 1.168 | 1.373

[Cl-].[Cl-].[Cl-].[Cl-].[Sn+4] + O=C(O)C(Cl)(Cl)Cl
[1], 323.15 K, 101 kPa
Conditions | viscosity [mPa·s]
x1 = 0.1911 | 2.66
x1 = 0.4139 | 1.448
x1 = 0.667 | 0.959
